Here are results for 16 compounds from PubChem BioAssay AID1259408 (Genetic Toxicology Data Bank (GENE-TOX), 2018).

The source made the active and inactive calls. The rule behind the calls is not given here.

This data set has as its system GENE-TOX genotoxicity assays, various organisms and cells. The data set can be described thus: GENE-TOX mutagenicity studies. To be noted: for call: Assay Type: In vivo carcinogenicity studies.
Setting [1] is: Species/Cell Type: Salmonella typhimurium (one or more of the five standard strains: TA98, TA100, TA1535, TA1537, and TA1538), Assay Type: Histidine reverse gene mutation, Ames assay, Assay Code: SAL+*, Activation: With metabolic activation, Evaluation Type: Evaluation A (Pre-1980).
The mark [2] stands for this setting: Species/Cell Type: Salmonella typhimurium (one or more of the five standard strains: TA98, TA100, TA1535, TA1537, and TA1538), Assay Type: Histidine reverse gene mutation, Ames assay, Assay Code: SAL+, Evaluation Type: Evaluation A (Pre-1980).
Setting [3] is: Species/Cell Type: Nonhuman, Assay Code: CCG+, Evaluation Type: Evaluation A (Pre-1980).
Where [4] appears, read: Species/Cell Type: Syrian hamster embryo (SHE) cells, Assay Type: Cell transformation, clonal assay, Assay Code: CTC+, Evaluation Type: Evaluation A (Pre-1980).
[5] abbreviates: Species/Cell Type: Salmonella typhimurium (one or more of the five standard strains: TA98, TA100, TA1535, TA1537, and TA1538), Assay Type: Histidine reverse gene mutation, Ames assay, Assay Code: SAL-, Evaluation Type: Evaluation A (Pre-1980).
Setting [6] is: Species/Cell Type: Syrian hamster embryo (SHE) cells, Assay Type: Cell transformation, clonal assay, Assay Code: CTC-, Evaluation Type: Evaluation A (Pre-1980).

With `CSc1nnc(C(C)(C)C)c(=O)n1N`, the mutagenic call (Species/Cell Type: Saccharomyces cerevisiae, Assay Type: Mitotic recombination or gene conversion, Assay Code: YEC-, Evaluation Type: Evaluation A (Pre-1980)) was “inactive; negative”.
As to `CCCCCCCCCCCCN(C)N=O`, the mutagenic call under setting [1] was “active; positive”.
Consider `CN(C)c1ccc(N(C)C)c2c1C(=O)c1c(O)ccc(O)c1C2=O`, for which, under setting [2], the mutagenic call was “active; positive”.
With `CC(=O)c1ccc([N+](=O)[O-])o1`, the mutagenic call under setting [2] is “active; positive”.
For the compound `C/[N+]([O-])=N/CO`, the mutagenic call is “active; positive” (Species/Cell Type: Chinese hamster lung (V79) cells, Assay Type: Forward gene mutation at the HPRT or ouabain locus, Assay Code: V79+, Evaluation Type: Evaluation A (Pre-1980)); “active; positive” (Species/Cell Type: Drosophila melanogaster, Assay Type: Sex-linked recessive lethal gene mutation, Assay Code: SRL+, Evaluation Type: Evaluation A (Pre-1980)); “active; positive” (Species/Cell Type: Salmonella typhimurium, Assay Type: Forward and reverse gene mutation, body fluid assay, Assay Code: BFU+, Evaluation Type: Evaluation A (Pre-1980)); “active; positive” under setting [4]. Under setting [3], the call was “active; positive”.
Regarding `NCCc1ccc(O)c(O)c1`, the mutagenic call is, setting by setting: (Species/Cell Type: Human lymphocytes, Assay Type: Sister-chromatid exchange (SCE) in vitro, Assay Code: SCL-, Evaluation Type: Evaluation B (Post-1980)) “inactive; negative”; (Species/Cell Type: Human, Assay Type: Sister-chromatid exchange (SCE) in vitro, Assay Code: SC1-, Evaluation Type: Evaluation B (Post-1980)) “inactive; negative”; (Species/Cell Type: Mammalian polychromatic erythrocytes, Assay Type: Micronucleus test, chromosome aberrations, Assay Code: MNT-, Evaluation Type: Evaluation B (Post-1980)) “inactive; negative”.
For `[N-]=[N+]=CC(=O)OC[C@H](N)C(=O)O`, the mutagenic call was “active; positive” (Species/Cell Type: Escherichia coli WP2, Assay Type: Tryptophan reverse gene mutation, Assay Code: WP2+, Evaluation Type: Evaluation A (Pre-1980)); “active; positive” (Species/Cell Type: Escherichia coli polA (W3119 vs P3478), Assay Type: Rec-assay, DNA effects (bacterial DNA repair), Assay Code: RE1+, Evaluation Type: Evaluation A (Pre-1980)); “active; positive” (Species/Cell Type: Nonhuman, Assay Type: Sister-chromatid exchange (SCE) in vitro, Assay Code: SC2+D, Dose Response: With dose response, Evaluation Type: Evaluation B (Post-1980)); “active; positive” under setting [2]; “active; positive” under setting [4]. Besides, under setting [3], the call was “active; positive”.
As to `CC(=O)Nc1ccc(-c2ccc(NO)cc2)cc1`, the mutagenic call (Species/Cell Type: Chinese hamster ovary (CHO) cells, Assay Type: Forward gene mutation at the HPRT locus, Assay Code: CHO+, Evaluation Type: Evaluation B (Post-1980)) was “active; positive”.
`CCCCN(C)N=O`: the mutagenic call (Species/Cell Type: Arabidopsis species, Assay Type: Gene mutation, Assay Code: ARM+, Evaluation Type: Evaluation A (Pre-1980)) was “active; positive”; the mutagenic call (Species/Cell Type: Escherichia coli polA (W3119 vs P3478), Assay Type: Rec-assay, DNA effects (bacterial DNA repair), Assay Code: RE1T, Evaluation Type: Evaluation A (Pre-1980)) is listed as “no conclusion”; the mutagenic call under setting [1] was “active; positive”.
Regarding `Cc1cc(N=Nc2ccc(C)c(N=Nc3cc(C)c(N)cc3N)c2)c(N)cc1N`, the mutagenic call (Species/Cell Type: Bacillus subtilis (H17 vs M45), Assay Type: Rec-assay, spot test, DNA effects (bacterial DNA repair), Assay Code: REW-, Evaluation Type: Evaluation A (Pre-1980)) was “inactive; negative”.
With `CN=NNc1ccccc1`, the mutagenic call (Species/Cell Type: Neurospora crassa, Assay Type: Forward gene mutation, Assay Code: NEF+, Evaluation Type: Evaluation A (Pre-1980)) is “active; positive”.
On to `c1cc[n+]2c(c1)-c1cccc[n+]1CC2`, for which the mutagenic call reads like this: (Species/Cell Type: Drosophila melanogaster, Assay Type: Sex-linked recessive lethal gene mutation, Assay Code: SRLT, Evaluation Type: Evaluation A (Pre-1980)) “no conclusion”; (Species/Cell Type: Rodents, Sex: Male, Assay Type: Dominant lethal test, Assay Code: DLT-, Evaluation Type: Evaluation A (Pre-1980)) “inactive; negative”; (Species/Cell Type: Saccharomyces cerevisiae, Assay Type: Mitotic recombination or gene conversion, Assay Code: YEC+, Evaluation Type: Evaluation A (Pre-1980)) “active; positive”.
`c1cc2ccc3cccc4ccc(c1)c2c34`: the mutagenic call runs as follows: (Species/Cell Type: Chinese hamster lung (V79) cells, Assay Type: Forward gene mutation at the HPRT or ouabain locus, Assay Code: V79-*, Activation: With metabolic activation, Evaluation Type: Evaluation A (Pre-1980)) “inactive; negative”; (Species/Cell Type: Chinese hamster lung (V79) cells, Assay Type: Forward gene mutation, host-mediated assay, Assay Code: HMG-, Evaluation Type: Evaluation A (Pre-1980)) “inactive; negative”; (Species/Cell Type: Fischer rat embryo (RLV/1706) cells, Assay Type: Cell transformation, viral enhanced, Assay Code: CTR-, Evaluation Type: Evaluation A (Pre-1980)) “inactive; negative”; (Species/Cell Type: Human diploid fibroblasts, Assay Type: Unscheduled DNA synthesis (UDS) in vitro, DNA effects, Assay Code: UDH-*, Activation: With metabolic activation, Evaluation Type: Evaluation A (Pre-1980)) “inactive; negative”; (Species/Cell Type: Mammalian polychromatic erythrocytes, Assay Type: Micronucleus test, chromosome aberrations, Assay Code: MNTT, Evaluation Type: Evaluation A (Pre-1980)) “no conclusion”; (Species/Cell Type: Mouse (BALB/c-3T3) cells, Assay Type: Cell transformation, Assay Code: CTB-, Evaluation Type: Evaluation A (Pre-1980)) “inactive; negative”. For the same compound, the mutagenic call runs as follows: (Species/Cell Type: Mouse embryo (AKR/ME) cells, Assay Type: Cell transformation, Assay Code: CTK-, Evaluation Type: Evaluation A (Pre-1980)) “inactive; negative”; (Species/Cell Type: Mouse, Sex: Male, Assay Type: Sperm morphology, Assay Code: SPI-, Evaluation Type: Evaluation A (Pre-1980)) “inactive; negative”; (Species/Cell Type: Nonhuman, Assay Type: Chromosome aberrations in vitro, Assay Code: CY&-, Evaluation Type: Evaluation A (Pre-1980)) “inactive; negative”; (Species/Cell Type: Nonhuman, Assay Type: Sister-chromatid exchange (SCE) in vitro, Assay Code: SC2+, Evaluation Type: Evaluation B (Post-1980)) “active; positive”; (Species/Cell Type: Nonhuman, Assay Type: Sister-chromatid exchange (SCE) in vitro, Assay Code: SC2T, Evaluation Type: Evaluation A (Pre-1980)) “no conclusion”; (Species/Cell Type: Nonhuman, Assay Type: Sister-chromatid exchange (SCE) in vivo, Assay Code: SC3-, Evaluation Type: Evaluation A (Pre-1980)) “inactive; negative”. For the same compound, the mutagenic call reads like this: under setting [5], “inactive; negative”; under setting [6], “inactive; negative”; (Species/Cell Type: Tradescantia species, Assay Type: Gene mutation, Assay Code: TRM+D, Dose Response: With dose response, Evaluation Type: Evaluation A (Pre-1980)) “active; positive”. In addition, for the setting “Species/Cell Type: Nonhuman, Assay Code: CCGT, Evaluation Type: Evaluation A (Pre-1980)”, the call was “no conclusion”.
Consider `COc1cc(O)c2c(O)c3c(c4c2c1[C@]1(C4)C(C)=CCCC1(C)C)[C@H](O)[C@@]1(O)CC(=O)C(C(N)=O)=C(O)[C@@]1(O)C3=O`, for which, under setting [1], the mutagenic call was “active; positive”.
Turning to `O=C1CCCCCO1`, the mutagenic call is, setting by setting: (Species/Cell Type: Escherichia coli polA (W3110 vs P3478), Assay Type: Rec-assay, DNA effects (bacterial DNA repair), Assay Code: RE2-, Evaluation Type: Evaluation A (Pre-1980)) “inactive; negative”; (Species/Cell Type: Escherichia coli polA (W3119 vs P3478), Assay Type: Rec-assay, DNA effects (bacterial DNA repair), Assay Code: RE1-, Evaluation Type: Evaluation A (Pre-1980)) “inactive; negative”; (Species/Cell Type: Mouse lymphoma (L5178Y) cells, Assay Type: Forward gene mutation at the thymidine kinase (TK) locus, chromosome aberrations, Assay Code: L51-, Evaluation Type: Evaluation A (Pre-1980)) “inactive; negative”; (Species/Cell Type: Nonhuman, Assay Type: Sister-chromatid exchange (SCE) in vitro, Assay Code: SC2-, Evaluation Type: Evaluation A (Pre-1980)) “inactive; negative”; (Species/Cell Type: Saccharomyces cerevisiae, Assay Type: Mitotic recombination or gene conversion, Assay Code: YEH-, Evaluation Type: Evaluation A (Pre-1980)) “inactive; negative”; under setting [5], “inactive; negative”. For the same compound, the mutagenic call is, setting by setting: (Species/Cell Type: Salmonella typhimurium, Assay Type: Forward and reverse gene mutation, host-mediated assay, Assay Code: HMA-, Evaluation Type: Evaluation A (Pre-1980)) “inactive; negative”; under setting [6], “inactive; negative”.
Regarding `COC(=O)Cc1ccc(OC)c(CSC(=N)N)c1`, the mutagenic call (Species/Cell Type: Saccharomyces cerevisiae, Assay Type: Reverse gene mutation, Assay Code: YERT, Evaluation Type: Evaluation A (Pre-1980)) is listed as “no conclusion”.
